Measured values: US12065441B2, “Pyrazolopyrimidine derivative, use thereof and pharmaceutical composition” (GENGLE THERAPEUTICS, INC., priority 2018, dated 2024)
Like-named read-outs stand apart in the source and are kept apart here.

Assays:
JAK1 = JAK1 (Homo sapiens, UniProt P23458); assay: Caliper Mobility Shift Assay, kinase enzyme activity, JAK1; assay type: biochemical; conditions: for inhibitory effect on kinase JAK1 (in words): JAK1, summary of Table 1; for IC50: JAK1, read-out: Kinase inhibitory activity (IC50, nM) JAK1
Protocol: (§1) The half-inhibition concentration IC50 of the compound (the concentration of the compound required to inhibit the enzyme activity to 50%) is measured by mixing the fixed enzyme with a specific substrate and different concentrations of the test compound. The measurement method used was Caliper Mobility Shift Assay, the kinases measured were JAK1, JAK2, JAK3 and TYK2, and the standard reference compound used was staurosporine.

JAK2 = JAK2 (Homo sapiens, UniProt O60674); assay: Caliper Mobility Shift Assay, kinase enzyme activity, JAK2; assay type: biochemical; conditions: for inhibitory effect on kinase JAK2 (in words): JAK2, summary of Table 1; for IC50: JAK2, read-out: Kinase inhibitory activity (IC50, nM) JAK2
Protocol: as §1

JAK3 = target: T1, JAK3 (Homo sapiens, UniProt P52333); assay: Caliper Mobility Shift Assay, kinase enzyme activity, JAK3; assay type: biochemical; conditions: for inhibitory activity on JAK3 (in words): JAK3, summary of Table 1; for IC50: JAK3, read-out: Kinase inhibitory activity (IC50, nM) JAK3
T1 sequence (P52333 1-1124): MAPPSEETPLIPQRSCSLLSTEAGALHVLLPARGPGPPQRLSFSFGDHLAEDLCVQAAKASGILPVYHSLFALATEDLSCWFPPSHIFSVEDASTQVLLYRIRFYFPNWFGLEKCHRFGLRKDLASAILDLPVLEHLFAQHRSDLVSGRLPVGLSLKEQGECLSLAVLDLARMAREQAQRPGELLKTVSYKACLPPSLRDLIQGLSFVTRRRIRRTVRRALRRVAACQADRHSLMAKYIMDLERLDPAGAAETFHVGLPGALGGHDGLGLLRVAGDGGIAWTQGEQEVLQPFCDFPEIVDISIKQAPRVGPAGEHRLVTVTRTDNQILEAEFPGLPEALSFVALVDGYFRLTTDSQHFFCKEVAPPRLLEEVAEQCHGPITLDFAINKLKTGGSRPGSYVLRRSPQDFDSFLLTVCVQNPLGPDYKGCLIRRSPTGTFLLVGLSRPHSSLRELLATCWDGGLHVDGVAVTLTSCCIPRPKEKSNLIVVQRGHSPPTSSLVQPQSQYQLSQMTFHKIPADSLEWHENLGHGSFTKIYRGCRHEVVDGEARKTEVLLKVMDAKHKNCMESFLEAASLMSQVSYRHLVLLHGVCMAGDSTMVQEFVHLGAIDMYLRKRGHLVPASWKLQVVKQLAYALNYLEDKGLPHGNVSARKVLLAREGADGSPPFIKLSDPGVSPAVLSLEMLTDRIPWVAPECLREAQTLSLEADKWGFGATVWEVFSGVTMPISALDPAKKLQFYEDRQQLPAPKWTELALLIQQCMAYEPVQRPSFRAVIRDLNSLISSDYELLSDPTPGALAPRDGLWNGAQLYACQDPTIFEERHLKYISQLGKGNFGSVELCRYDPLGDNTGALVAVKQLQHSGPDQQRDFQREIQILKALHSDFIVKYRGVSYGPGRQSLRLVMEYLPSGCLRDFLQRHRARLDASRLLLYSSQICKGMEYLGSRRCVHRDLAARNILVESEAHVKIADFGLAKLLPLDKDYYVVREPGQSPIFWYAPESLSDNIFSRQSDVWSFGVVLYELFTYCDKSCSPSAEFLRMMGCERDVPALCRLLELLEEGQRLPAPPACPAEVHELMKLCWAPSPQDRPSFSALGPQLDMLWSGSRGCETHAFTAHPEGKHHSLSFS
Protocol: as §1

TYK2 = TYK2 (Homo sapiens, UniProt P29597); assay: Caliper Mobility Shift Assay, kinase enzyme activity, TYK2; assay type: biochemical; conditions: for inhibitory activity on TYK2 (in words): TYK2, summary of Table 1; for IC50: TYK2, read-out: Kinase inhibitory activity (IC50, nM) TYK2
Protocol: as §1

[1] = Pharmacokinetics experiment in mice (intravenous and oral); assay type: in vivo; conditions: for F: 10 mg/kg oral vs 2 mg/kg intravenous; for AUC(0-t) / MRT inf / clearance / half-life / Vd / Cmax / Tmax: both sexes, mouse, blood, single dose; for half-life: read-out: Terminal t1/2 (converted); for Vd: read-out: Vss
Protocol: Experimental animals: mice, male and female, weight: 23-25 g;
Preparation of the test articles: The target compounds (Ig, Ii, and Ip) were prepared as 0.4 mg/mL (for intravenous administration) and 1.0 mg/mL (for oral administration), for later use. Administration route: oral administration/intravenous injection. Dosing volume and frequency: 5 mL/kg (intravenous injection) or 10 mL/kg (oral administration), single dose.
Sample collection: Blood was collected at the following time points, 5 min, 15 min, 30 min, 1 hr, 2 hr, 4 hr, 8 hr and 24 hr after administration.
Sample analysis: LC-MS/MS method was used to detect the collected samples. The instrument model used was Triple Quad 6500+.
Pharmacokinetic data analysis: WinNolin was used to fit and calculate the obtained blood drug concentration data according to the non-compartmental model method, and partial results are summarized in Table 2.

JAK2, sequence (O60674 whole entry): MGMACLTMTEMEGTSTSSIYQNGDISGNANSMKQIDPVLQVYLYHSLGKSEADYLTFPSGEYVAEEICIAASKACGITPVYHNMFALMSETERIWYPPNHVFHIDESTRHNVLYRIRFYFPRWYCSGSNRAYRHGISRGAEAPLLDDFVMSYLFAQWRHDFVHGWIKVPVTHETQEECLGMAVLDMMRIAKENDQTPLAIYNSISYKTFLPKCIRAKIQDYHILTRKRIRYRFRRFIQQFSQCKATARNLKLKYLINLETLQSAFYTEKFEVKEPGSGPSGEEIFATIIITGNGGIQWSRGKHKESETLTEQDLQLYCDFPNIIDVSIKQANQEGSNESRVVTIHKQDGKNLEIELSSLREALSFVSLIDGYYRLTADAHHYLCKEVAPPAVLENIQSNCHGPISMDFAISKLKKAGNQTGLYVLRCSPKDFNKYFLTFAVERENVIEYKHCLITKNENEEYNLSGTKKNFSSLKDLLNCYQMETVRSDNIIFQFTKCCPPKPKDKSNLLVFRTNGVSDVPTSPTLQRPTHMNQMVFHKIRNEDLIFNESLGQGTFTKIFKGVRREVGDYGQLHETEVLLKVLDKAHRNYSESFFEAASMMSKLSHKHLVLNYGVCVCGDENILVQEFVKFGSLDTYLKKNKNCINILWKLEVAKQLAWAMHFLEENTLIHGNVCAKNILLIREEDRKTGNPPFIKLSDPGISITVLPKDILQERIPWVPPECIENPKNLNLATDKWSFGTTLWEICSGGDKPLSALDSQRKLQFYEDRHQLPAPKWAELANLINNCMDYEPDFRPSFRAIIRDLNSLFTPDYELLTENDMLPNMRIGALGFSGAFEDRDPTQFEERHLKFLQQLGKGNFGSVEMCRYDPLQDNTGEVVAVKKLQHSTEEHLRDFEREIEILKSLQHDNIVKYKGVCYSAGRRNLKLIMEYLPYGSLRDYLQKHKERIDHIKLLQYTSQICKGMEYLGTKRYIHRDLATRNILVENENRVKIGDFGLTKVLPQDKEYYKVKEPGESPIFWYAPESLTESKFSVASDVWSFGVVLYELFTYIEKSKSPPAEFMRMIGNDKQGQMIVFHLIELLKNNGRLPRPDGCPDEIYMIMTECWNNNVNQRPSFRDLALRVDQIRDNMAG
TYK2, sequence (P29597 whole entry): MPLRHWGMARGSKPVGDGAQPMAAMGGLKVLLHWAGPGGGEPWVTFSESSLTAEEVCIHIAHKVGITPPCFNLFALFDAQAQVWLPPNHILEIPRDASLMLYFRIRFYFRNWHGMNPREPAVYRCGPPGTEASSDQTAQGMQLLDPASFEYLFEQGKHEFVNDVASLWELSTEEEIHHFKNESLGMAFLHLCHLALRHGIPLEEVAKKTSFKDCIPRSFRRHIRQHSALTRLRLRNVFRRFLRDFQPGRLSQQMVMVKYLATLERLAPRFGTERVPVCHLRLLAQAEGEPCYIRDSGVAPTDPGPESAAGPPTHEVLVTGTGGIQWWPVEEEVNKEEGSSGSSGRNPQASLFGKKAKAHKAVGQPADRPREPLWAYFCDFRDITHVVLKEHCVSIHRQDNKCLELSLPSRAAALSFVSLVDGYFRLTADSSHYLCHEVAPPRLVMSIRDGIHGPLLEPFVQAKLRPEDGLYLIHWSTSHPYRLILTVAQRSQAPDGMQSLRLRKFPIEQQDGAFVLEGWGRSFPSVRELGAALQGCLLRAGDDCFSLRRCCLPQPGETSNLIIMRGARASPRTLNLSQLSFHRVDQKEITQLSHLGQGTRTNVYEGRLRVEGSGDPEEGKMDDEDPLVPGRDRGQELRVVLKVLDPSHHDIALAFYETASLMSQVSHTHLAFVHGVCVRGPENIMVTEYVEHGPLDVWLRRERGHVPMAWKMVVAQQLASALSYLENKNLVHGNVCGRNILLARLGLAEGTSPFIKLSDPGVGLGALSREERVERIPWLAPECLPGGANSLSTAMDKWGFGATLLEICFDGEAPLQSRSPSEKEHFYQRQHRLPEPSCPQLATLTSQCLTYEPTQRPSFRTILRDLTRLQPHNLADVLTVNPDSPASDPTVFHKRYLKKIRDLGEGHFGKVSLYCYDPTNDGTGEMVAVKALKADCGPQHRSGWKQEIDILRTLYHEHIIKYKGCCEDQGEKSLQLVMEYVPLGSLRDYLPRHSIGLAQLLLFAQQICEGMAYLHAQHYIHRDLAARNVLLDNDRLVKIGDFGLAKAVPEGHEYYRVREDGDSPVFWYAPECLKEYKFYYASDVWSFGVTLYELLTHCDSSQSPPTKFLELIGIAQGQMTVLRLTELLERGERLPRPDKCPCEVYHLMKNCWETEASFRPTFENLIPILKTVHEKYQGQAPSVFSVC
JAK1, sequence (P23458 whole entry): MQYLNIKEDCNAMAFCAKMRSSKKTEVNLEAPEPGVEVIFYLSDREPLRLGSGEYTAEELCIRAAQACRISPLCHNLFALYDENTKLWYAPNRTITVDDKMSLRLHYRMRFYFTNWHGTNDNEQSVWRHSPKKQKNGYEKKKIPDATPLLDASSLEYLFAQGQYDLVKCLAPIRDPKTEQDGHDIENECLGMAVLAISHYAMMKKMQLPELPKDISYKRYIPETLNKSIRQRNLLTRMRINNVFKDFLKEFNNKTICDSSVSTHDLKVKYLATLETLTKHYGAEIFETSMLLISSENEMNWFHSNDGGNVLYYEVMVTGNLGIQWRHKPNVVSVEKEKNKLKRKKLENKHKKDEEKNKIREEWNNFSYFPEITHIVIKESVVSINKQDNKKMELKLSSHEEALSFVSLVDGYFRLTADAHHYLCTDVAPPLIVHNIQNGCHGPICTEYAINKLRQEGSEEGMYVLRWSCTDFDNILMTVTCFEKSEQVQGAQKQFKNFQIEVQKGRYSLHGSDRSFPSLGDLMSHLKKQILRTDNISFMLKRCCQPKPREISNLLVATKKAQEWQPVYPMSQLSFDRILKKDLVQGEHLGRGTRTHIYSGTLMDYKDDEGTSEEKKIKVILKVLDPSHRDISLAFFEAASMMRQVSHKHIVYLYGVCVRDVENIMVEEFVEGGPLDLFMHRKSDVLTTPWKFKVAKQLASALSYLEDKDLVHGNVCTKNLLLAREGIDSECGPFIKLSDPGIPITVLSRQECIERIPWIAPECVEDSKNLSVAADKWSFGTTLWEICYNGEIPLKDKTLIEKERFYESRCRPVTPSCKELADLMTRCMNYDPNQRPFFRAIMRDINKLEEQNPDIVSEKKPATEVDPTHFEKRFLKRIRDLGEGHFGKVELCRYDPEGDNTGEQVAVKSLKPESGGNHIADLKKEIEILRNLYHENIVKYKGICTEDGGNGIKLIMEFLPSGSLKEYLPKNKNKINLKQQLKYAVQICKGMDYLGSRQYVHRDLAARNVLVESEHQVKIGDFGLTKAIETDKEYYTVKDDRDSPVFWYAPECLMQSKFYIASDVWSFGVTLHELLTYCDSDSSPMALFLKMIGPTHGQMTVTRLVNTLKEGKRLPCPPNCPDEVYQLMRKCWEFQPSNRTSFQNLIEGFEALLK

Structure (SMILES)	inhibitory effect on kinase JAK1 (in words) (JAK1)	IC50 (JAK1) [nM]	inhibitory effect on kinase JAK2 (in words) (JAK2)	IC50 (JAK2) [nM]	inhibitory activity on JAK3 (in words) (JAK3)	IC50 (JAK3) [nM]	inhibitory activity on TYK2 (in words) (TYK2)	IC50 (TYK2) [nM]	F [1] [%]	AUC(0-t) ([1]; 2 mg/kg, intravenous injection) [ng·h/mL]	MRT inf ([1]; 2 mg/kg, intravenous injection) [min]	clearance ([1]; 2 mg/kg, intravenous injection) [mL/min/kg]	half-life ([1]; 2 mg/kg, intravenous injection) [min]	Vd ([1]; 2 mg/kg, intravenous injection) [L/kg]	AUC(0-t) ([1]; 10 mg/kg, oral administration) [ng·h/mL]	Cmax ([1]; 10 mg/kg, oral administration) [ng/mL]	Tmax ([1]; 10 mg/kg, oral administration) [min]	half-life ([1]; 10 mg/kg, oral administration) [min]
N#CCC1(n2cc(-c3ncnc4[nH]ncc34)cn2)CN(C2CCN(C(=O)c3ccnc(C(F)(F)F)c3F)CC2)C1 [Compound Ii]	strong inhibitory effect	39	strong inhibitory effect	126	weak inhibitory activity	3770	weak inhibitory activity	2660	37.9	900	35.8	37.3	50	1.32	1710	904	60	59.2
CCS(=O)(=O)N1CCC(N2CC(CC#N)(n3cc(-c4ncnc5[nH]ncc45)cn3)C2)CC1 [Compound Ig]	strong inhibitory effect	58	strong inhibitory effect	47	weak inhibitory activity	2060	weak inhibitory activity	1230	51.7	883	26.8	37.5	23.4	0.997	2290	1310	22.5	70.8
CCS(=O)(=O)N1CC(CC#N)(n2cc(-c3ncnc4[nH]ncc34)cn2)C1 [Compound Ip]			strong inhibitory effect	12	weak inhibitory activity	423	weak inhibitory activity	209	99.4	1200	63.6	27.3	83.4	1.74	5950	3380	15	84
